Measurements reported in patent US11560395B2, “Azithromycin derivatives containing a phosphonium ion as anticancer agents” (Rising Tide Foundation, priority 2017, dated 2023).

What follows are compounds tested on MDA-231 cancer cells (assay: Inhibition of proliferation assay, cell confluence (IncuCyte live cell imaging)). Conditions: MDA-231 cells, concentration 10 uM; relative confluence normalised to time zero, images every 3 h over 4-5 d.
Format: cell-based
From the text: Inhibition of Proliferation Assay Cell Confluence The confluence value is a surrogate for cell proliferation and growth. The value is expressed as a percent confluence, which represents the fraction of culture dish-surface that is occupied by cells. As the number of cells in the dish increases over time due to proliferation, so will their coverage of that surface increase. Expansion of the cell population on the cell culture-dish surface and confluence have mostly a linear relationship until the cells on the plate surface begin to reach saturation or maximum density. Confluence is determined based on image analysis. Image based software can identify objects in the image field base on changes to pixel density in a grey scale image. The software can then assign a mask to those pixels within the object. Objects can be ‘gated’ out based on size and shape. To determine cell confluence, images of cells are first masked as objects. The surface area of the image that is masked is measured and compared to the total surface area of the culture dish surface to obtain a percent confluence. MDA-231 cancer cells were obtained from ATCC. Cells were cultured in Dulbecco's Modified Eagle Medium (DMEM) supplemented with 10% Fetal Bovine Serum (FBS), 2 mM Glutamax, 1 mM Non Essential Amino Acid (NEAA) solution and 1 mM sodium pyruvate. Compounds were dissolved in DMSO at 10 mM and diluted in cellular medium and tested at 10 μM (micromolar). Final DMSO concentrations were <0.1%. Images were acquired with an IncuCyte Live Cell Imaging microscopy (Essen Bioscience) at every 3 h under cell culture conditions with 10× objective over 4-5 d. Cell confluence was calculated from one field of view per well using the IncuCyte in-built algorithm. Relative confluence values were obtained by normalising each value to the time zero value in each sample.
For `CC[C@H]1OC(=O)[C@H](C)[C@@H](O[C@H]2C[C@@](C)(OC)[C@@H](O)[C@H](C)O2)[C@H](C)[C@@H](O[C@@H]2O[C@H](C)C[C@H](N(C)C)[C@H]2O)[C@](C)(O)C[C@@H](C)CN(C(=O)CCOCCOCC[P+](c2ccccc2)(c2ccccc2)c2ccccc2)[C@H](C)[C@@H](O)[C@]1(C)O.[Br-]` [Example 23, [2-(2-{3-[(2R,3S,4R,5R,8R,10R,11R,12S,13S,14R)-11-{[(2S,3R,4S,6R)-4-(dimethylamino)-3-hydroxy-6-methyloxan-2-yl]oxy}-2-ethyl-3,4,10-trihydroxy-13-{[(2R,4R,5S,6S)-5-hydroxy-4-methoxy-4,6-dimethyloxan-2-yl]oxy}-3,5,6,8,10,12,14-hexamethyl-15-oxo-1-oxa-6-azacyclopentadecan-6-yl]-3-oxopropoxy}ethoxy)ethyl]triphenylphosphonium bromide], the “% Confluence” value was 118%. For `CC[C@H]1OC(=O)[C@H](C)[C@@H](O[C@H]2C[C@@](C)(OC)[C@@H](O)[C@H](C)O2)[C@H](C)[C@@H](O[C@@H]2O[C@H](C)C[C@H](N(C)C)[C@H]2O)[C@](C)(O)C[C@@H](C)CN(C(=O)CCCCN(C)CC[P+](c2ccccc2)(c2ccccc2)c2ccccc2)[C@H](C)[C@@H](O)[C@]1(C)O.[Br-]` [Example 24, [2-({5-[(2R,3S,4R,5R,8R,10R,11R,12S,13S,14R)-11-{[(2S,3R,4S,6R)-4-(dimethylamino)-3-hydroxy-6-methyloxan-2-yl]oxy}-2-ethyl-3,4,10-trihydroxy-13-{[(2R,4R,5S,6S)-5-hydroxy-4-methoxy-4,6-dimethyloxan-2-yl]oxy}-3,5,6,8,10,12,14-hexamethyl-15-oxo-1-oxa-6-azacyclopentadecan-6-yl]-5-oxopentyl}(methyl)amino)ethyl]triphenylphosphonium bromide], the “% Confluence” value was 49.1%. `CC[C@H]1OC(=O)[C@H](C)[C@@H](O[C@H]2C[C@@](C)(OC)[C@@H](O)[C@H](C)O2)[C@H](C)[C@@H](O[C@@H]2O[C@H](C)C[C@H](N(C)C)[C@H]2O)[C@](C)(O)C[C@@H](C)CN(C(=O)CCCCCCCCCC[P+](c2ccccc2)(c2ccccc2)c2ccccc2)[C@H](C)[C@@H](O)[C@]1(C)O.[Cl-]` [Example 25, {11-[(2R,3S,4R,5R,8R,10R,11R,12S,13S,14R)-11-{[(2S,3R,4S,6R)-4-(dimethylamino)-3-hydroxy-6-methyloxan-2-yl]oxy}-2-ethyl-3,4,10-trihydroxy-13-{[(2R,4R,5S,6S)-5-hydroxy-4-methoxy-4,6-dimethyloxan-2-yl]oxy}-3,5,8,10,12,14-hexamethyl-15-oxo-1-oxa-6-azacyclopentadecan-6-yl]-11-oxoundecyl}triphenylphosphonium chloride] was tested, and the “% Confluence” value was 4.4%.
